ChEMBL document CHEMBL1201862, “PubChem BioAssay data set” (2004)
Calls of active or inactive are those of the source. No stated cut-off is given here; in the data, actives have a measured Ki and inactives only a lower limit.

What was measured:
[1] = biological target: Focal adhesion kinase 1 (Homo sapiens, UniProt Q05397); type: functional;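 further: measured as one member of a kinome panel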
[2] = biological target: Cyclin-dependent kinase 19 (Homo sapiens, UniProt Q9BWU1); assay: Navigating the Kinome. Panel member name: CDC2L6; type: functional
Sequence of Cyclin-dependent kinase 19 (Q9BWU1 whole entry): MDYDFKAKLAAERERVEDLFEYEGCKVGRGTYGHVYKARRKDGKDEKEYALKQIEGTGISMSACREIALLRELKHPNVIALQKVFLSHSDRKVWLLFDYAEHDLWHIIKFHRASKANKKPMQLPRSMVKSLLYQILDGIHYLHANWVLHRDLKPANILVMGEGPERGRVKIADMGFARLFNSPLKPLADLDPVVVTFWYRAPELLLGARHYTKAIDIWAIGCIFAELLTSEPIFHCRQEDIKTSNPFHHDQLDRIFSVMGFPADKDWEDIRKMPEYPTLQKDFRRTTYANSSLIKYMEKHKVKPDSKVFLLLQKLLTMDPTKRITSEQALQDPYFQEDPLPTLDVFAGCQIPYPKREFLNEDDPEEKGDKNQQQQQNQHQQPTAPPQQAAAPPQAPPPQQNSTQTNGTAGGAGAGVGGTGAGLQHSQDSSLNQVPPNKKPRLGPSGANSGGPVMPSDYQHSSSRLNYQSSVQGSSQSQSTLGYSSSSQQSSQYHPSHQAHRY

Sequence of Focal adhesion kinase 1 (Q05397 whole entry): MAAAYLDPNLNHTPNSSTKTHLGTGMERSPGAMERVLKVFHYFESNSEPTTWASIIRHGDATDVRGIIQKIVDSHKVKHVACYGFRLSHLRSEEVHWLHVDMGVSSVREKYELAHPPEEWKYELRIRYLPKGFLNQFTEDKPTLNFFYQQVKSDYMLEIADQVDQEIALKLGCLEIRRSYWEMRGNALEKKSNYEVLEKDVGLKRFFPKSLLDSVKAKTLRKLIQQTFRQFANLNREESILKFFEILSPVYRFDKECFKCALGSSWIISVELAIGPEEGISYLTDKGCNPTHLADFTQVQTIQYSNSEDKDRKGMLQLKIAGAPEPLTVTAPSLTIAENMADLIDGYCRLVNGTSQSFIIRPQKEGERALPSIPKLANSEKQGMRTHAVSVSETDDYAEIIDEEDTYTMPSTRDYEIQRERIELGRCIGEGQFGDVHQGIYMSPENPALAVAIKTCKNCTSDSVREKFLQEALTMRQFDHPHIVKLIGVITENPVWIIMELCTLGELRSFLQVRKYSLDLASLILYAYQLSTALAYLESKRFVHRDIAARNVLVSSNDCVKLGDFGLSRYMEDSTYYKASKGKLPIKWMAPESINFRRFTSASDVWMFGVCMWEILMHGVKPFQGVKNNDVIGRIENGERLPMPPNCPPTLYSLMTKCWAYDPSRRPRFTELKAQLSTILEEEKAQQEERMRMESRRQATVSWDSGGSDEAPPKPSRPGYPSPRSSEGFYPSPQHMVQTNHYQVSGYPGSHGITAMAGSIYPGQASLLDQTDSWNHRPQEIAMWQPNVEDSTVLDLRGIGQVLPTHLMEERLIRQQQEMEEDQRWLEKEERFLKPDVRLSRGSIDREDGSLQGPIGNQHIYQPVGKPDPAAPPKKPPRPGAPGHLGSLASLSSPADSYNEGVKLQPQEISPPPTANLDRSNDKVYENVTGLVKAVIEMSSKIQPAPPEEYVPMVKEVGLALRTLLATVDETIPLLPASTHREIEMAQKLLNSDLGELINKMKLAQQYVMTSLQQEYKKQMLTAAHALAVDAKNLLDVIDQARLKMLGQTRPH

`COc1cccc(C(=O)Nc2cccc(-c3nc4sccn4c3-c3ccnc(Nc4ccc(N5CCOCC5)cc4)n3)c2)c1` was tested, and the Ki [1] was 0.631 µM (active) and the Ki [2] was 10 µM (active).
